In publication PMC9176681, “Evaluation of a flavonoid library for inhibition of interaction of HIV-1 integrase with human LEDGF/p75 towards a structure–activity relationship” (Annals of Medicine, 2022):
Values joined by “and” are separate entries in the source; they are usually repeats but may differ in a detail not shown here. Equal entries are not always repeated.

Biological target: T1, IN-LEDGF/p75 interaction (Human immunodeficiency virus type 1 group M subtype B, UniProt P12497, C1427S/F1332K)
T1 construct: His6 (C); made in house; host or cells: E. coli
Assay: biochemical
Type: binding, HIV-1
Conditions: not given
Description: The inhibitory activities against the IBD-IN interaction were tested using HTRF assays according to a previous study. […] “Protein MIX” was prepared by mixing His6-HIV-1 IN (final concentration of 50 nM) and GST-IBD (final concentration of 25) in the assay buffer (25 mM Tris-HCl pH 7.5, 150 mM NaCl, 1 mg/ml BSA, 0.1% NP40, 2 mM MgCl2). […] To the 8 μl “protein MIX”, 2 μl of DMSO or compound (50 µM) dissolved in DMSO was added and mixed thoroughly. The concentrations of DMSO in the assay should be no more than 4%. The plate was incubated for 30 min at 25 °C. Then 10 μl premixed antibodies were added and mixed. The assay plate was incubated in the dark for 1 h at 25 °C. DMSO instead of the compound was used as a negative control. BI224436 was used as a positive compound for inhibition of IN-LEDGF/p75 interaction. […] Data were analysed and visualised in GraphPad Prism 5.0.

Structure (SMILES) | IC50 [µM]
Cc1nc2ccccc2c(-c2ccc3c4c(ccnc24)CCO3)c1[C@H](OC(C)(C)C)C(=O)O [BI224436, reference compound] | 0.0188

Same assay, conditions: HTRF, 50 μM final concentration

Structure (SMILES) | inhibitory activity against IN-LEDGF/p75 interaction (in words)
COc1cc(-c2oc3cc(O)c(OC)c(O)c3c(=O)c2OC)ccc1O [compound 17] | reduced
Oc1cc(O)c2c(c1)O[C@H](c1cc(O)c(O)c(O)c1)[C@H](O)C2 [compound 68] | effectively blocked
COc1cc(-c2oc3cc(O)cc(O)c3c(=O)c2O)ccc1O [compound 3] | reduced
C=C(C)C(O)Cc1c(O)cc(OC)c(C(=O)/C=C/c2ccc(O)cc2)c1O (stereo not shown) [compound 96] | drop in protein-protein interaction disruption
COc1ccccc1/C=C/C(=O)c1c(OC)cc(O)c(OC)c1O [compound 93] | drop in protein-protein interaction disruption
COc1c(O)cc(O)c2c1O[C@@H](c1ccccc1O)CC2=O [compound 60] | loss of activity
Oc1cc(O)c2c(c1)O[C@H](c1ccc(O)c(O)c1)[C@@H](O)C2 [compound 70] | effectively blocked
COc1ccc(-c2oc3cc(O)cc(O)c3c(=O)c2O)cc1O [compound 12] | reduced
O=C1c2ccc(O)cc2OC(c2cc(O)c(O)c(O)c2)C1O (stereo not shown) [compound 43] | efficiently blocked
Oc1cc(O)c2c(c1)O[C@H](c1ccc(O)c(O)c1)[C@H](O)C2 [compound 71] | effectively blocked
COc1cc(-c2oc3cc(OC)c(OC)c(O)c3c(=O)c2OC)ccc1O [compound 19] | reduced
COc1ccc(-c2oc3cc(O)cc(O)c3c(=O)c2OC)cc1O [compound 15] | reduced
COc1ccc(-c2oc3cc(O)cc(O)c3c(=O)c2O)cc1 [compound 4] | reduced
O=c1c(-c2ccc(O)cc2)coc2cc(O)cc(O)c12 [genistein] | worst inhibitory activity
O=c1c(O)c(-c2ccc(O)c(O)c2)oc2cc(O)cc(O)c12 [compound 10] | effectively inhibited
COc1cc(O)c(C(=O)/C=C/c2ccccc2)c(O)c1OC [compound 99] | drop in protein-protein interaction disruption
CC(C)=CCc1cc(-c2oc3cc(O)cc(O)c3c(=O)c2O)ccc1O [compound 2] | reduced
COc1cc(O)c2c(c1)OC(c1ccc(O)cc1)CC2=O (stereo not shown) [compound 49] | loss of activity
CC(C)=CCc1cc(-c2oc3cc(O)c(CC=C(C)C)c(O)c3c(=O)c2O)ccc1O [compound 1] | reduced
COc1cc(O)c(OC)c(O)c1C(=O)/C=C/c1ccccc1 [compound 89] | drop in protein-protein interaction disruption
O=C1c2c(O)cc(O)cc2OC(c2cc(O)c(O)c(O)c2)[C@H]1O (stereo partly shown) [compound 47] | efficiently blocked
COc1c(O)cc2c(c1O)C(=O)CC(c1ccc(O)cc1)O2 (stereo not shown) [compound 52] | loss of activity
COc1cc(O)c2c(=O)c(OC)c(-c3ccc(O)c(OC)c3)oc2c1 [compound 14] | reduced
CC(C)=CCc1c(O)ccc2c1O[C@@H](c1ccc(O)cc1)CC2=O [compound 64] | loss of activity
O=c1cc(-c2ccc(O)c(O)c2)oc2cc(O)cc(O)c12 [compound 30, Luteolin] | most potent
COc1cc(O)c(CC=C(C)C)c(O)c1C(=O)/C=C/c1ccc(O)cc1 [compound 95] | drop in protein-protein interaction disruption
COc1cc2oc(-c3ccc(O)c(O)c3)c(OC)c(=O)c2c(O)c1OC [compound 16] | effectively inhibited
COc1cc(C2CC(=O)c3c(cc(O)c(OC)c3O)O2)cc(O)c1OC (stereo not shown) [compound 50] | loss of activity

Biological target: T2, IN (Human immunodeficiency virus type 1 group M subtype B, UniProt P12497, C1427S/F1332K)
T2 construct: His6 (C); made in house; host or cells: E. coli
Assay: Biolayer interferometry (BLI) binding assay
Parameters: species or system HIV-1
Conditions: 30 °C, PBS with 0.01% Tween-20

Structure (SMILES) | Kd
COc1cc(O)cc(O)c1C(=O)/C=C/c1ccc(O)cc1 [helichrysetin] | 2.7 µM
O=C1c2ccc(O)cc2OC(c2cc(O)c(O)c(O)c2)C1O (stereo not shown) [dihydrorobinetin] | 1.4 µM
O=c1c(O)c(-c2cc(O)c(O)c(O)c2)oc2cc(O)cc(O)c12 [myricetin] | 1 µM
O=c1c(-c2ccc(O)cc2)coc2cc(O)cc(O)c12 [genistein] | 3.6 µM and 2.7 µM
O=C1C[C@@H](c2ccc(O)cc2)Oc2cc(O)cc(O)c21 [naringenin] | 1.4 µM and 1.9 µM
Oc1cc(O)c2c(c1)O[C@H](c1ccc(O)c(O)c1)[C@H](O)C2 [epicatechin] | 1.7 µM
O=c1cc(-c2ccc(O)c(O)c2)oc2cc(O)cc(O)c12 [compound 30, Luteolin] | 1.3 µM

Biological target: T1, IN-LEDGF/p75 interaction
Assay: not given
Parameters: method as in PMID 24663024
Conditions: previous experiment result; read-out: IC50, inhibition of IN-LEDGF/p75 interaction, previous experiment result; cited from earlier work

Structure (SMILES) | IC50 [µM]
Cc1nc2ccccc2c(-c2ccc3c4c(ccnc24)CCO3)c1[C@H](OC(C)(C)C)C(=O)O [BI224436, reference compound] | 0.011
